Counter-ions that a name gives are not always drawn. Where a SMILES comes first, the peptide text is derived from it. [ ]: non-standard residue; d: D form. The star is where a group is joined. Sta = CC(C)C[C@H](N)[C@@H](O)CC(=O)O; Isovaleryl = CC(C)CC(=O)*
Legend:
[1] = Promotion of nasal absorption of peptide proteinaceous drug; conditions: in vivo
[2] = test system: Human Nasal Mucosal Homogenate; test: Inhibitory effect on degradation of peptide proteinaceous drug in human nasal mucosal homogenate; format: biochemical; design: concentration or dose not given beside the values; conditions: 37° C., HPLC; for Inhibitor (%) ACTH: degradation of adrenocorticotropic hormone (ACTH); for Inhibitor (%) CGRP: degradation of calcitonin gene related peptide (CGRP); for Inhibitor (%) GLU: degradation of glucagon (GLU); for Inhibitor (%) GHRH: degradation of growth hormone releasing hormone (GHRH); for Inhibitor (%) INS: degradation of insulin (INS); for Inhibitor (%) LHRH: degradation of luteinizing hormone releasing hormone (LHRH); for Inhibitor (%) PTH: degradation of parathyroid hormone (PTH); for Inhibitor (%) PDGF: degradation of platelet-derived growth factor (PDGF); for Inhibitor (%) SCT: degradation of salmon calcitonin (SCT); for Inhibitor (%) GIF: degradation of somatostatin (GIF); for Inhibitor (%) S.p: degradation of substance P (S.p)
Method: A homogenate solution was prepared from human nasal mucosa to give 1 mg/ml of protein. […] The amounts of the peptide proteinaceous drug not yet cleaved after a predetermined time were measured by HPLC to find the amounts of decomposition. The inhibition rates were calculated by the following formula.
Inhibition rate (%)=(A-B)/A×100
A: Amount of peptide proteinaceous drug cleaved when enzyme inhibitor or absorption accelerant of present invention is not added to homogenate
B: Amount of peptide proteinaceous drug cleaved when enzyme inhibitor or absorption accelerant of present invention is added to homogenate

trypsin = molecular target: T1, trypsin (Bos taurus, UniProt P00760); test: Trypsin inhibiting activity; format: biochemical
T1 construct: gene PRSS1
T1 sequence (P00760 24-246): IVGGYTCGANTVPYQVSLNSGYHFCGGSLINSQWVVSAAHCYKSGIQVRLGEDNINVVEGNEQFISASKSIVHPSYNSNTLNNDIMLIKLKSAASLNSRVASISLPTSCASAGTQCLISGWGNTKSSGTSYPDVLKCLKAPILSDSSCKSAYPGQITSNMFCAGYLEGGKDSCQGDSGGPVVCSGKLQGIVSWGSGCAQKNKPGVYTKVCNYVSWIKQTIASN

[3] = test system: Human Nasal Mucosal Homogenate; test: Activity of protease in human nasal mucosal homogenate (cleavage of synthesized substrates); format: biochemical; conditions: substrate 0.1 mM, 37° C., amount of substrate cleaved by HPLC
Method: A homogenate solution was prepared from human nasal mucosa to give 1 mg/ml of protein. Next, synthesis substrates corresponding to the various proteases shown in Table 1 were added to 0.5 ml portions of the homogenate solution to give 0.1 mM concentrations. The results were incubated at 37° C. The amounts of the substrates remaining after a predetermined time were measured by HPLC to find the amounts of substrates cleaved and find the activity of the various proteases.

Molecule | effect of promoting nasal absorption [1] | Inhibitor (%) ACTH [2] [%] | Inhibitor (%) CGRP [2] [%] | Inhibitor (%) GLU [2] [%] | Inhibitor (%) GHRH [2] [%] | Inhibitor (%) INS [2] [%] | Inhibitor (%) LHRH [2] [%] | Inhibitor (%) PTH [2] [%] | Inhibitor (%) PDGF [2] [%] | Inhibitor (%) SCT [2] [%] | Inhibitor (%) GIF [2] [%] | Inhibitor (%) S.p [2] [%] | trypsin inhibiting activity (trypsin) | Activity (nM/h/mg protein) [3] [nM/h/mg protein]
NCCCCCC(=O)O [ε-ACA, ε-Amino caproic acid] | no effect of promoting nasal absorption was observed | 0 | 0 | 0 | 0 | 0 | 0 | 0 | 0 | 0 | 0 | 0 |  | 
CC(C)C[C@H](NC(=O)[C@@H](NC(=O)N[C@@H](Cc1ccccc1)C(=O)O)[C@@H]1CCN=C(N)N1)C(=O)N[C@H](C=O)Cc1ccccc1 [Chymostatin] |  | 12 | 23 | 35 | 25 | 22 | 16 | 15 | 10 | 38 | 25 | 15 |  | 
O=C(O)CNC(=O)C(CS)Cc1ccccc1 (stereo not shown) [Thiorphan] |  | 0 | 0 | 0 | 0 | 0 | 0 | 0 | 0 | 0 |  | 0 |  | 
NCc1ccccc1 [Benzylamine] |  | 80 | 76 | 48 | 68 | 68 | 49 | 80 | 52 | 70 | 78 | 54 |  | 
NC[C@H]1CC[C@H](C(=O)Oc2ccc(CCC(=O)O)cc2)CC1 [Cetraxate hydrochloride, trans-(4-aminomethyl) cyclohexane carboxylic acid p-(2-carboxyethyl)phenyl ester] |  | 70 | 70 | 54 | 70 | 80 | 48 | 75 | 58 |  | 80 | 54 | no trypsin inhibiting activity | 
CCOC(=O)c1ccc(OC(=O)CCCCCNC(=N)N)cc1 [Gabexate] |  | 48 | 49 | 56 | 40 | 46 | 27 | 44 | 43 | 53 | 56 | 40 |  | 
NC[C@H]1CC[C@H](C(=O)c2ccc(CCC(=O)O)cc2)CC1 [Rotraxate hydrochloride, 3-((p-(trans-4-aminomethylcyclohexylcarbonyl)phenyl)) propionic acid] |  | 74 | 75 | 62 | 75 | 84 | 56 | 76 | 59 | 80 | 86 | 53 | no trypsin inhibiting activity | 
CC(C)CC(=O)N[C@H](C(=O)N[C@H](C(=O)N[C@@H](CC(C)C)[C@@H](O)CC(=O)N[C@@H](C)C(=O)N[C@@H](CC(C)C)[C@@H](O)CC(=O)O)C(C)C)C(C)C [Pepstatin] (Isovaleryl-VV[Sta]A[Sta]-OH) |  | 4 | 10 | 8 | 0 | 15 | 0 | 10 | 0 | 10 | 0 | 0 |  | 
NCCc1ccc(O)c(O)c1 [Dopamine hydrochloride, 4-(2-aminoethyl)-1,2 benzenediol] |  | 77 | 72 | 50 | 50 | 52 | 29 | 70 | 55 | 64 | 72 | 60 | no trypsin inhibiting activity | 
Cc1ccc(S(=O)(=O)N[C@@H](Cc2ccccc2)C(=O)CCl)cc1 [TPCK] |  | 8 | 0 | 5 | 0 | 7 | 5 | 10 | 3 | 0 | 11 | 10 |  | 
NCc1ccc(S(N)(=O)=O)cc1 [Mafenide acetate, 4-(aminomethyl) benzenesulfamine] |  | 78 | 70 | 56 | 66 | 52 | 32 | 75 | 59 | 67 | 74 | 55 | no trypsin inhibiting activity | 
Bz--Arg--MCA |  |  |  |  |  |  |  |  |  |  |  |  |  | 1
NC[C@H]1CC[C@H](C(=O)O)CC1 [Tranexamic acid, trans-4-(aminomethyl) cyclohexane carboxylic acid] |  | 80 | 75 | 68 | 75 | 79 | 58 | 78 | 68 | 73 | 80 | 65 | no trypsin inhibiting activity | 
NCc1ccc(C(=O)O)cc1 [p-Aminomethyl benzoic acid] |  | 84 | 72 | 60 | 70 | 74 | 54 | 80 | 65 | 76 | 85 | 58 |  | 

— patent US5578324A, “Peptide proteinaceous drug nasal powder composition” (Teijin Limited, priority 1993, dated 1996)
